According to paper PMC7646200 (Xenobiotica; the fate of foreign compounds in biological …, 2020):

Key:
in vitro [1] = conditions: male, Wistar, rat, pH 7.4
rat liver cytosol = test: Sulfonation of 7-hydroxycoumarin derivatives by rat liver cytosol; conditions: rat liver cytosol; value (95 % confidence interval)
mouse liver cytosol = test: Sulfonation of 7-hydroxycoumarin derivatives by mouse liver cytosol; conditions: for Vmax: mouse liver cytosol, value (95 % confidence interval); for sulfonation rate: 10 μM substrate
in vitro [2] = conditions: DBA/2N/Kuo, mouse, pH 7.4
in vitro [3] = conditions: female, Dutch belted, rabbit, pH 7.4
in vitro [4] = conditions: female, pig, pH 7.4
pig liver cytosol = test: Sulfonation of 7-hydroxycoumarin derivatives by pig liver cytosol; conditions: pig liver cytosol; value (95 % confidence interval)
human liver cytosol = test: Sulfonation of 7-hydroxycoumarin derivatives by human liver cytosol; conditions: human liver cytosol; value (95 % confidence interval)
rabbit liver cytosol = test: Sulfonation of 7-hydroxycoumarin derivatives by rabbit liver cytosol; conditions: rabbit liver cytosol; value (95 % confidence interval)
dog liver cytosol = test: Sulfonation of 7-hydroxycoumarin derivatives by dog liver cytosol; conditions: dog liver cytosol; for intrinsic clearance (Vmax/Km): rank among species; for Vmax: value (95 % confidence interval)
in vitro [5] = conditions: female, sheep, pH 7.4
in vitro [6] = conditions: both, Beagle, dog, pH 7.4
in vitro [7] = conditions: male, human, pH 7.4
sheep liver cytosol = test: Sulfonation of 7-hydroxycoumarin derivatives by sheep liver cytosol; conditions: sheep liver cytosol; value (95 % confidence interval)

| SMILES | Km (in vitro [1]) | Vmax (rat liver cytosol) | Vmax (mouse liver cytosol) | Km (in vitro [2]) | Km (in vitro [3]) | Km (in vitro [4]) | Vmax (pig liver cytosol) | Vmax (human liver cytosol) | Vmax (rabbit liver cytosol) | intrinsic clearance (Vmax/Km) (dog liver cytosol) | Vmax (dog liver cytosol) | Km (in vitro [5]) | Km (in vitro [6]) | Km (in vitro [7]) | Vmax (sheep liver cytosol) | sulfonation rate (mouse liver cytosol; female mouse liver cytosol) | sulfonation rate (mouse liver cytosol; male mouse liver cytosol) |
| --- | --- | --- | --- | --- | --- | --- | --- | --- | --- | --- | --- | --- | --- | --- | --- | --- | --- |
| COc1ccc(-c2cc3ccc(O)cc3oc2=O)cc1 [compound 11, 3-(4-methoxyphenyl)-7-hydroxycoumarin] | 0.57 µM | 210 (190–260) nmol/(min * g protein) | 100 (84–150) nmol/(min * g protein) | 1.2 µM | 3.4 µM | 1.3 µM | 5.5 (3.3–7.8) nmol/(min * g protein) | 18 (12–23) nmol/(min * g protein) | 190 (100–260) nmol/(min * g protein) | highest | 300 (150–710) nmol/(min * g protein) | 9.8 µM | 0.22 µM | 0.11 µM | 410 (190–620) nmol/(min * g protein) | – | – |
| Cc1c(C)c2ccc(O)cc2oc1=O [compound 4, 3,4-dimethyl-7-hydroxycoumarin] | 1.1 µM | 380 (140–620) nmol/(min * g protein) | 17 (14–20) nmol/(min * g protein) | 0.11 µM | 0.65 µM | 6.4 µM | 67 (18–120) nmol/(min * g protein) | 210 (0–1300) nmol/(min * g protein) | 13 (0–28) nmol/(min * g protein) | highest | 330 (250–420) nmol/(min * g protein) | 0.46 µM | 0.62 µM | 24 µM | 300 (230–370) nmol/(min * g protein) | Slow | Slow |
